According to patent publication US8293724B2, “Therapeutic applications of fatty acid amide hydrolase inhibitors” (The United States of America, as represented by the …, priority 2007, dated 2012):

What was measured:
[1] = Non-fasting blood glucose in SHR and WKY; details: AM3506 1 mg/kg i.p., n=6
anandamide transporter = test: Inhibition of the anandamide transporter (anandamide uptake); assay type: cell-based; details: concentrations of up to 20 μM
conscious SHR = test: Blood pressure and heart rate in conscious SHR; assay type: in vivo, rat; details: versus dosage
CB2 cannabinoid receptor = CB2 cannabinoid receptor (Homo sapiens, UniProt P34972); test: Affinity for the CB2 cannabinoid receptor; assay type: binding
FAAH = biological target: T1, FAAH (Rattus norvegicus, UniProt P97612); test: FAAH inhibition in vitro, crude rat brain homogenate with [3H]anandamide; assay type: biochemical
T1 construct: from tissue; host or cells: liver of SHR and WKY rats treated in vivo
T1 sequence (P97612 1-579): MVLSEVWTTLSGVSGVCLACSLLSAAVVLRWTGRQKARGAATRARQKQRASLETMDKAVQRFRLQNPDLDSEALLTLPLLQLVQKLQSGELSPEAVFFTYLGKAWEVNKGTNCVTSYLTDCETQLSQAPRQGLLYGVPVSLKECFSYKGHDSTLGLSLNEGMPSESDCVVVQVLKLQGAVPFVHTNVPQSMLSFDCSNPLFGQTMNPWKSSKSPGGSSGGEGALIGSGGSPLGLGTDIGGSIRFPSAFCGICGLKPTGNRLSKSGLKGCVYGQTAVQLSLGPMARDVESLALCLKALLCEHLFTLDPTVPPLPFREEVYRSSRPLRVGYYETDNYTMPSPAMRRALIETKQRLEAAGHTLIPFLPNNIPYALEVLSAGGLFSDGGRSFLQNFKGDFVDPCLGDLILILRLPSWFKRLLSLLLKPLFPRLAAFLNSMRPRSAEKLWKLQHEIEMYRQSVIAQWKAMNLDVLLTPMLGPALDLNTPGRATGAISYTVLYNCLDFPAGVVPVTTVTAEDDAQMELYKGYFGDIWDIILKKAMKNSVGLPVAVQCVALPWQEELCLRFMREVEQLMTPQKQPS
Protocol: This example describes a general method for assaying FAAH inhibition by the disclosed compounds and determining their IC50 values in vitro (Deutsch, D. G. and S. A. Chin, Biochem. Pharmacol. 46:791-796 (1993)). The indicated amount of each compound was preincubated in a buffer consisting of 300 μg of crude rat brain homogenate protein, 500 μg/ml fatty acid-free bovine serum albumin, in phosphate-buffered saline in a final volume of 1.0 ml, for 10 minutes at 37° C. Crude rat brain homogenate was obtained by decapitating female adult Sprague-Dawley rats, dissecting the desired tissue and homogenizing in five volumes of ice-cold TE (10 mM Tris-HCl, 1 mM EDTA, pH 7.6). Substrate ([…] anandamide+0.2 µCi of 221 Ci/mmol [^3H]anandamide ([arachidonyl-5,6,8,9,11,12,14,15-^3H]ethanolamide)) was then added and the samples incubated for 10 minutes. The reaction was quenched by the addition of chloroform:methanol (1:1) and enzyme activity was analyzed by TLC.

Sequence of CB2 cannabinoid receptor (P34972 whole entry): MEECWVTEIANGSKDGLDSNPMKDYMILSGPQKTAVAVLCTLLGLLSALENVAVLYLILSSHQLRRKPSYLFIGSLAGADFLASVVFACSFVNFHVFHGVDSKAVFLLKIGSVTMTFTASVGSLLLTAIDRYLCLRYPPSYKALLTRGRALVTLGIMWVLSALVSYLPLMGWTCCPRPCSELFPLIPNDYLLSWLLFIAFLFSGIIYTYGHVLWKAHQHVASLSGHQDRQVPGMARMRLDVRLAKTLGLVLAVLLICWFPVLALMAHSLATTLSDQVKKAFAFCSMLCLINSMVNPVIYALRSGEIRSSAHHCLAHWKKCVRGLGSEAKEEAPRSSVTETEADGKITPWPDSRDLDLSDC

O=S(=O)(F)CCCCCc1ccc(O)cc1 [AM3506]
non-fasting blood glucose after treatment ([1]; SHR, from 97.8±5.6): 97.8 ± 2.9 mg/dL | non-fasting blood glucose after treatment ([1]; WKY, from 114.5±5.3): 108.2 ± 4.5 mg/dL | inhibition of the anandamide transporter (anandamide transporter): did not inhibit | MBP (conscious SHR; n=4, FIG. 4A): decrease MBP | heart rate (conscious SHR; n=4, FIG. 5A): moderate bradycardia only at 1 mg/kg dose | Ki (CB2 cannabinoid receptor): 5.77 µM | Ki (FAAH): 0.031 µM
